Consider 17 compounds from ChEMBL document CHEMBL1152020, “Novel 2,5-disubstituted-1H-pyrroles with high affinity for the dopamine D3 receptor” (Bioorg Med Chem Lett, 1996).

Molecules are shown by their SMILES.

Assay [1] addresses D(3) dopamine receptor (Homo sapiens, UniProt P35462). Nature of the assay: Binding affinity towards human Dopamine receptor D3 expressed in CHO cells by [125I]iodosulpiride displacement. The class given is cell-based.
The target of assay [2] is Dopamine receptors; D2 & D3 (Homo sapiens) (UniProt P14416+P35462). Nature of the assay: Selectivity at D3 compared to D2 receptors. The class given is protein assay.
Assay [3] has as its target D(2) dopamine receptor (Homo sapiens, UniProt P14416). Nature of the assay: Binding affinity towards human Dopamine receptor D2 expressed in CHO cells by [125I]iodosulpiride displacement. The assay is classed as cell-based.

Sequence of D(2) dopamine receptor (P14416 whole entry): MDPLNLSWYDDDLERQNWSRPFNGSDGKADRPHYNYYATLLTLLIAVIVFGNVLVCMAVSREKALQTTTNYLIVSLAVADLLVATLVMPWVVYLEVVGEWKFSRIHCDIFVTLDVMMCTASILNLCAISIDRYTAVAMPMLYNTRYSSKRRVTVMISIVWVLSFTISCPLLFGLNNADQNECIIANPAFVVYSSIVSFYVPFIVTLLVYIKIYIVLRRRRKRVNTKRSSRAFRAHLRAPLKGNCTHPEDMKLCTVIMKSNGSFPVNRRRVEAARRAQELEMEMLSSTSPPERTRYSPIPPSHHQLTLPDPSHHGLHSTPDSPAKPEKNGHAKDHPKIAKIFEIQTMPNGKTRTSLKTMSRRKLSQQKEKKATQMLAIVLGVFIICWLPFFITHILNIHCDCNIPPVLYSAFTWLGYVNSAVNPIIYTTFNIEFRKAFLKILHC
Sequence of D(3) dopamine receptor (P35462 whole entry): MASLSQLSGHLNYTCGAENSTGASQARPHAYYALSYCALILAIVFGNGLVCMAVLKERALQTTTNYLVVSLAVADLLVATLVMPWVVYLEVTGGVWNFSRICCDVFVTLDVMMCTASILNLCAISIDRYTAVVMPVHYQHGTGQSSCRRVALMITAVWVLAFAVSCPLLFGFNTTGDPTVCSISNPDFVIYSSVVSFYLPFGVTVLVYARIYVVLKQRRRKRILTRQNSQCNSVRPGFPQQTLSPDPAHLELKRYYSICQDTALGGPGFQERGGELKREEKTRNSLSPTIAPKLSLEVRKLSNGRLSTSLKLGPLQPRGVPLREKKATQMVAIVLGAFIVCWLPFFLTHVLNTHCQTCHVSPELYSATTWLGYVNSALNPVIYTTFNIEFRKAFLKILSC

For orientation: Ki means a measure of affinity in units of concentration, obtained from inhibition or displacement. Turning to `CCN1CCCCCC1c1ccc(-c2cc(S(=O)(=O)CC)ccc2OC)[nH]1` (stereo not given), the Ki is 2 nM in assay [1] and 7.94 nM in assay [3]. For the same compound, in assay [2], the Selectivity stood at 4.

On to `CCN(Cc1ccccc1)Cc1ccc(-c2cc(S(=O)(=O)CC)ccc2OC)[nH]1`, for which the Ki in assay [1] is 0.316 nM; in assay [3] it was 0.794 nM. In addition, the Selectivity in assay [2] amounted to 3.

Turning to `CCN1CCCCC1c1ccc(-c2cc(S(=O)(=O)CC)ccc2OC)[nH]1` (stereo not given), the results for the Ki in assay [1] and in assay [3] were 2 nM and 7.94 nM, respectively. The compound also registered a Selectivity in assay [2] of 4.

For `CCS(=O)(=O)c1ccc(OC)c(-c2ccc(C(C)N3CCCCC3)[nH]2)c1` (stereo not given), the Ki in assay [1] is 10 nM; in assay [3], 316 nM. This compound had a Selectivity in assay [2] of 30.

Consider `CCS(=O)(=O)c1ccc(OC)c(-c2ccc(CN3CCOCC3)[nH]2)c1`, for which the figures for the Ki in assay [1] and in assay [3] were 794 nM and 3160 nM, respectively. In assay [2], this compound registered a Selectivity of 4.

With `CCS(=O)(=O)c1ccc(OC)c(-c2ccc(CN3CCCCCC3c3ccccc3)[nH]2)c1` (stereo not given), the Ki in assay [1] was 1.26 nM; in assay [3] it was 39.8 nM. Besides, in assay [2], the Selectivity was determined as 30.

Regarding `CCS(=O)(=O)c1ccc(OC)c(-c2ccc(CN3CCCCC3c3ccccc3)[nH]2)c1` (stereo not given), the Ki in assay [1] was 1.26 nM; in assay [3] it was 12.6 nM. This compound displayed a Selectivity in assay [2] of 10.

Regarding `CCN(CC)Cc1ccc(-c2cc(S(=O)(=O)CC)ccc2OC)[nH]1`, the Ki in assay [1] was 39.8 nM; in assay [3], 316 nM. The Selectivity in assay [2] came out at 8.

As to `CCN1CCCC1c1ccc(-c2cc(S(=O)(=O)CC)ccc2OC)[nH]1` (stereo not given), the Ki was 5.01 nM in assay [1] and 25.1 nM in assay [3]. The Selectivity in assay [2] was determined as 5.

For the compound `CCN1CCCC1CNC(=O)c1cc(S(=O)(=O)CC)ccc1OC` (stereo not given) [SULTOPRIDE], the Ki in assay [1] and in assay [3] was 6.31 nM throughout.

Turning to `CCS(=O)(=O)c1ccc(OC)c(-c2ccc(C(C)N3CCCCCC3)[nH]2)c1` (stereo not given), the Ki in assay [1] is 20 nM; in assay [3], 79.4 nM. In assay [2], the Selectivity came to 4.

`CCS(=O)(=O)c1ccc(OC)c(-c2ccc(CN3CCCCC3)[nH]2)c1`: the figures for the Ki in assay [1] and in assay [3] were 25.1 nM and 158 nM, respectively. In assay [2], this compound had a Selectivity of 6.

With `CCS(=O)(=O)c1ccc(OC)c(-c2ccc(CN3CCCCCC3)[nH]2)c1`, the results for the Ki in assay [1] and in assay [3] were 15.8 nM and 158 nM, respectively. This compound gave a Selectivity in assay [2] of 10.

`CCS(=O)(=O)c1ccc(OC)c(-c2ccc(CN3CCCC3c3ccccc3)[nH]2)c1` (stereo not given): the Ki in assay [1] is 1 nM; in assay [3] it was 15.8 nM. The Selectivity in assay [2] stood at 15.

With `CCS(=O)(=O)c1ccc(OC)c(-c2ccc(CN3CCCCCCC3c3ccccc3)[nH]2)c1` (stereo not given), the Ki in assay [1] was 20 nM; in assay [3], 316 nM. Further, in assay [2], the Selectivity amounted to 15.

Consider `CCS(=O)(=O)c1ccc(OC)c(-c2ccc(CN3CCCC3)[nH]2)c1`, for which the Ki in assay [1] is 63.1 nM; in assay [3] it was 251 nM. For the same compound, the Selectivity in assay [2] turned out to be 4.

Turning to `CCS(=O)(=O)c1ccc(OC)c(-c2ccc(C(C)N3CCCC3)[nH]2)c1` (stereo not given), the values for the Ki in assay [1] and in assay [3] were 20 nM and 398 nM, respectively. In addition, the Selectivity in assay [2] amounted to 20.
